From patent US5110976A, “Insecticidal composition comprising more than one active ingredient” (priority 1985, dated 1992)
≈ marks a conversion by molar mass, not a printed value.

Tests used:
Hyphantria cunea = experiment: Topical test on fall webworm (Table 18); format: in vivo, fall wetworm (Hyphantria cunea), L7-L8 larvae; conditions: for 24 hours' mortality: 1440 min
Procedure: The active ingredients are dissolved in 2-ethoxy-ethanol and the solutions are applied in the form of 0.2 μl droplets onto the back of fall wetworm (Hyphantria cunea) of L7 -L8 larvae stage. The treated worms are placed on strawberry leaves in Petri-dishes. The test is carried out by using […], 2 parallels and 10 insects for each dose. The killed worms are counted after 24 hours and the percental mortality rate is calculated.

Colorado potato beetle = experiment: Topical test on Colorado potato beetle (Table 14); format: in vivo, Colorado potato beetle (Leptinotersa decemlineata), imago
Procedure: In Table 14 the activity on Colorado potato beetle is shown.
The test materials are dissolved in 2-ethoxyethanol (Cellosolve). One 0.3 μl drop of the solution is applied to the abdominal sterna of the imago. The treatment is carried out by using 2 parallels and 10 insects for each dose. […]

tribolium confusum [1] = experiment: Comparative contact test (Table 15); format: in vivo, flour-beetle (Tribolium confusum), imago; conditions: 24 h
Procedure: (§1) The active ingredient is dissolved in a 1:2 mixture of oil and acetone; filter paper discs (Whatman No. 1, diameter 9 cm) are impregnated with the solutions of the corresponding stereoisomers and enantiomer-pairs, respectively. The acetone is allowed to evaporate, whereupon the insects are exposed to filter papers discs placed in Petri-dishes. Three parallels are used on each dose and 15 insects are placed into each Petri-dish. The percental mortality is determined after 24 hours. The corrected percent mortality is calculated by means of the Abbot Formula.
(§2) The comparative test of Ia, Ib and a 40:60 mixture of Ia:Ib is carried out on bean weevil (Acanthoscelides obtectus), flour-beetle, (Tribolium confusum), house fly (Musca domestica) and sheep maggot fly (Lucillia sericata). The test method described is Example 41.

Tetranychus urticae = experiment: Potter Tower spray on mite-infested leaves (Table 19); format: in vivo, mites (Tetranychus urticae); conditions: Tetranychus urticae, 24 h, mortality after 24 hours; read-out: approx. LD50
Procedure: Leaves already infested with mites (Tetranychus urticae) were sprayed under Potter Tower. Mortality after 24 hours on the treated leaves was compared with the control.

Musca domestica [2] = experiment: Comparative contact test (Table 15); format: in vivo, house fly (Musca domestica), imago; conditions: 24 h
Procedure: as §1, §2

Tribolium confusum [3] = experiment: Contact test on Tribolium confusum (Table 12); format: in vivo; conditions: Tribolium confusum, 24 h
In short: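 Compound in 1:2 oil/acetone impregnated onto 9 cm filter paper discs; after acetone evaporation, 15 insects per Petri dish exposed by contact, three replicates per dose. Mortality read at 24 hours and corrected by Abbott's formula.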

A. matricariae = experiment: Direct contact test on pupae (Table 26); format: in vivo
Procedure: Mature pupae of A. matricariae on paprika leaves in Petri-dishes are exposed to a direct spray of the active ingredients. Two or three days before emergence paprika leaves with parasitized pupae are used. The leaves are laid on moistened filter paper in a plastic Petri-dish.
Application of treatment: See Example 57.
The pieces of leaf are transferred after treatment to clean Petri-dish bottoms. The trays are stored in a climatic chamber at 20° C. temperature, 70% relative humidity and a light-dark cycle of 16-8 h. Surviving pupae hatch after 2-3 days. The numbers of hatched and dead pupae are counted.

Lucillia sericata = experiment: Comparative contact test (Table 15); format: in vivo, sheep maggot fly (Lucillia sericata), imago; set-up: key: % mortality after 24 h, Abbott-corrected; conditions: 1440 min
Procedure: as §1, §2

Musca domestica [4] = experiment: Filter paper disc contact test (Table 11); format: in vivo, house fly (Musca domestica)
In short: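 Stereoisomers in 1:2 oil/acetone were applied to 9 cm filter paper discs, the acetone evaporated, and discs placed in Petri dishes with 15 flies each, three replicates per dose. Mortality was scored at 24 h and corrected by Abbott's formula.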

Tribolium confusum [5] = experiment: Contact test, mixtures of Ia and Ib of various ratio (Table 13); format: in vivo, flour beetle (Tribolium confusum)
Procedure: as §1
In Table 13 the insecticidal effect of mixtures of enantiomer-pairs Ia and Ib of various ratio is shown on flour beetle (Tribolium confusum). The test method is that disclosed in Example 43.

Acanthoscelides obtectus = experiment: Comparative contact test (Table 15); format: in vivo, bean weevil (Acanthoscelides obtectus), imago; conditions: Acanthoscelides obtectus, 24 h
Procedure: as §1, §2

T. confusum = experiment: Activity as function of time, toxic symptoms (Table 16); format: in vivo, flour beetle (T. confusum), imagos
In short: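 T. confusum imagos exposed in Petri dishes to filter-paper discs impregnated with isomer solutions in 1:2 oil/acetone, acetone evaporated; 3 replicates of 15 insects per dose. Insects lying on their backs counted at successive time points, expressed as percent.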

**Q.** Which results are given for CC1(C)C(C=C(Cl)Cl)C1C(=O)OC(C#N)c1cccc(Oc2ccccc2)c1 (centres unmarked) [Ia:Ib = 4:6]?
**A.** 24 hours' mortality (Hyphantria cunea; 0.023 (μg/disc)): 40%; 24 hours' mortality (Hyphantria cunea; 0.047 (μg/disc)): 50%; 24 hours' mortality (Hyphantria cunea; 0.094 (μg/disc)): 55%; mortality at 0.188 µg/disc (Hyphantria cunea; Hyphantria cunea, topical, 24 h, 0.188 (μg/disc)): 65%; mortality at 0.375 µg/disc (Hyphantria cunea; Hyphantria cunea, topical, 24 h, 0.375 (μg/disc)): 75%; 24 hours' mortality % (Colorado potato beetle; 0.05 μg/beetle): 45%; 24 hours' mortality % (Colorado potato beetle; 0.10 μg/beetle): 60%; 24 hours' mortality % (Colorado potato beetle; 0.20 μg/beetle): 70%; mortality at 0.4 µg/beetle (Colorado potato beetle; Leptinotarsa decemlineata, topical, read-out: 24 hours' mortality %, 0.40 μg/beetle): 80%; mortality at 20 µg/disc (tribolium confusum [1]; 0.02 mg/disc): 16%; mortality at 70 µg/disc (tribolium confusum [1]; 0.07 mg/disc): 80%; mortality at 220 µg/disc (tribolium confusum [1]; 0.22 mg/disc): 100%; mortality at 670 µg/disc (tribolium confusum [1]; 0.67 mg/disc): 100%; mortality at 2000 µg/disc (tribolium confusum [1]; 2.0 mg/disc): 100%; mortality at 6000 µg/disc (tribolium confusum [1]; 6.0 mg/disc): 100%; LC50 (Tetranychus urticae): ~0.06 µg/mL (≈ 0.144 µM); mortality at 20 µg/disc (Musca domestica [2]; 0.02 mg/disc): 25%; mortality at 70 µg/disc (Musca domestica [2]; 0.07 mg/disc): 45%; mortality at 220 µg/disc (Musca domestica [2]; 0.22 mg/disc): 85%; mortality at 670 µg/disc (Musca domestica [2]; 0.67 mg/disc): 100%; mortality at 2000 µg/disc (Musca domestica [2]; 2.0 mg/disc): 100%; mortality at 6000 µg/disc (Musca domestica [2]; 6.0 mg/disc): 100%; mortality at 110 µg/disc (Tribolium confusum [3]; 0.11 mg/disc): 61%; mortality at 330 µg/disc (Tribolium confusum [3]; 0.33 mg/disc): 89%; mortality at 1000 µg/disc (Tribolium confusum [3]; 1.00 mg/disc): 100%; mortality at 3000 µg/disc (Tribolium confusum [3]; 3.00 mg/disc): 100%; Mortality % (A. matricariae; 1 ppm): 0%; Mortality % (A. matricariae; 5 ppm): 0%; Mortality % (A. matricariae; 10 ppm): 0%; Mortality % (A. matricariae; 33 ppm): 14.3%; mortality (Lucillia sericata; 0.02 mg/disc): 18; mortality (Lucillia sericata; 0.07 mg/disc): 50; mortality (Lucillia sericata; 0.22 mg/disc): 60; mortality (Lucillia sericata; 0.67 mg/disc): 75; mortality (Lucillia sericata; 2.0 mg/disc): 100; mortality (Lucillia sericata; 6.0 mg/disc): 100; mortality at 40 µg/disc (Musca domestica [4]; Musca domestica, 24 h, 0.04 mg/disc): 41%; mortality at 110 µg/disc (Musca domestica [4]; Musca domestica, 24 h, 0.11 mg/disc): 81%; mortality at 330 µg/disc (Musca domestica [4]; Musca domestica, 24 h, 0.33 mg/disc): 100%; mortality at 1000 µg/disc (Musca domestica [4]; Musca domestica, 24 h, 1.00 mg/disc): 100%; mortality at 3000 µg/disc (Musca domestica [4]; Musca domestica, 24 h, 3.00 mg/disc): 100%; comparative activity (Musca domestica [4]; mixture versus Ia): corresponds to that of the pure isomer Ia; 24 hours' mortality % (Tribolium confusum [5]; 0.02 mg/disc, 1440 min): 14%; 24 hours' mortality % (Tribolium confusum [5]; 0.06 mg/disc, 1440 min): 53%; 24 hours' mortality % (Tribolium confusum [5]; 0.25 mg/disc): 100%; 24 hours' mortality % (Tribolium confusum [5]; 1.00 mg/disc): 100%; mortality at 20 µg/disc (Acanthoscelides obtectus; 0.02 mg/disc): 30%; mortality at 70 µg/disc (Acanthoscelides obtectus; 0.07 mg/disc): 55%; mortality at 220 µg/disc (Acanthoscelides obtectus; 0.22 mg/disc): 90%; mortality at 670 µg/disc (Acanthoscelides obtectus; 0.67 mg/disc): 100%; mortality at 2000 µg/disc (Acanthoscelides obtectus; 2.0 mg/disc): 100%; mortality at 6000 µg/disc (Acanthoscelides obtectus; 6.0 mg/disc): 100%; % of insects showing toxic symptoms (T. confusum; 30 minutes): 0%; % of insects showing toxic symptoms (T. confusum; 30 minutes, 0.33 mg/disc): 0%; % of insects showing toxic symptoms (T. confusum; 30 minutes, 1.00 mg/disc): 50%; % of insects showing toxic symptoms (T. confusum; 30 minutes, 3.00 mg/disc): 55%; % of insects showing toxic symptoms (T. confusum; 60 minutes): 15%; % of insects showing toxic symptoms (T. confusum; 60 minutes, 0.33 mg/disc): 85%; % of insects showing toxic symptoms (T. confusum; 60 minutes, 1.00 mg/disc): 85%; % of insects showing toxic symptoms (T. confusum; 60 minutes, 3.00 mg/disc): 100%; % of insects showing toxic symptoms (T. confusum; 120 minutes): 30%; % of insects showing toxic symptoms (T. confusum; 120 minutes, 0.33 mg/disc): 100%; % of insects showing toxic symptoms (T. confusum; 120 minutes, 1.00 mg/disc): 100%; % of insects showing toxic symptoms (T. confusum; 120 minutes, 3.00 mg/disc): 100%; % of insects showing toxic symptoms (T. confusum; 180 minutes): 55%; % of insects showing toxic symptoms (T. confusum; 180 minutes, 0.33 mg/disc): 100%; % of insects showing toxic symptoms (T. confusum; 180 minutes, 1.00 mg/disc): 100%; % of insects showing toxic symptoms (T. confusum; 180 minutes, 3.00 mg/disc): 100%
